According to the NIST ThermoML archive (doi:10.1016/j.jct.2018.08.004):

Assay: xn = mol fraction of the nth substance listed
Conditions: for surface tension liquid-gas: Maximal bubble pressure; for mass density: 100 kPa, Liquid, Vibrating tube method

CCCC[n+]1ccccc1.N#C[N-]C#N [1-butylpyridinium dicyanamide] + CCCO
Conditions | mass density [kg/m3] | surface tension liquid-gas [mN/m]
288.15 K, x1 = 0.1001 | 872.25 | 26.5
288.15 K, x1 = 0.2008 | 919.12 | 27.9
288.15 K, x1 = 0.3008 | 954.79 | 29.5
288.15 K, x1 = 0.4009 | 982.76 | 31.7
288.15 K, x1 = 0.4994 | 1005.24 | 33.1
288.15 K, x1 = 0.5998 | 1023.96 | 35.7
288.15 K, x1 = 0.6976 | 1039.92 | 38.4
288.15 K, x1 = 0.7974 | 1052.61 | 41.2
288.15 K, x1 = 0.903 | 1064.59 | 45.8
288.15 K, x1 = 1 | 1074.97 | 56.3
293.15 K, x1 = 0.1001 | 868.53 | 26.1
293.15 K, x1 = 0.2008 | 915.57 | 27.6
293.15 K, x1 = 0.3008 | 951.37 | 29.1
293.15 K, x1 = 0.4009 | 979.42 | 31.3
293.15 K, x1 = 0.4994 | 1001.98 | 32.8
293.15 K, x1 = 0.5998 | 1020.75 | 35.3
293.15 K, x1 = 0.6976 | 1036.74 | 38
293.15 K, x1 = 0.7974 | 1049.46 | 41
293.15 K, x1 = 0.903 | 1061.47 | 45.6
293.15 K, x1 = 1 | 1071.9 | 56
298.15 K, x1 = 0.1001 | 864.79 | 25.6
298.15 K, x1 = 0.2008 | 912.01 | 27.1
298.15 K, x1 = 0.3008 | 947.94 | 28.8
298.15 K, x1 = 0.4009 | 976.09 | 31.1
298.15 K, x1 = 0.4994 | 998.72 | 32.5
298.15 K, x1 = 0.5998 | 1017.54 | 35
298.15 K, x1 = 0.6976 | 1033.57 | 37.7
298.15 K, x1 = 0.7974 | 1046.31 | 40.7
298.15 K, x1 = 0.903 | 1058.35 | 45.2
298.15 K, x1 = 1 | 1068.83 | 55.7
303.15 K, x1 = 0.1001 | 861.04 | 25.2
303.15 K, x1 = 0.2008 | 908.45 | 26.7
303.15 K, x1 = 0.3008 | 944.53 | 28.4
303.15 K, x1 = 0.4009 | 972.76 | 30.7
303.15 K, x1 = 0.4994 | 995.47 | 32.2
303.15 K, x1 = 0.5998 | 1014.34 | 34.7
303.15 K, x1 = 0.6976 | 1030.42 | 37.4
303.15 K, x1 = 0.7974 | 1043.18 | 40.4
303.15 K, x1 = 0.903 | 1055.25 | 45
303.15 K, x1 = 1 | 1065.76 | 55.5
308.15 K, x1 = 0.1001 | 857.28 | 24.7
308.15 K, x1 = 0.2008 | 904.9 | 26.4
308.15 K, x1 = 0.3008 | 941.11 | 28.1
308.15 K, x1 = 0.4009 | 969.44 | 30.4
308.15 K, x1 = 0.4994 | 992.23 | 31.7
308.15 K, x1 = 0.5998 | 1011.15 | 34.4
308.15 K, x1 = 0.6976 | 1027.27 | 37.1
308.15 K, x1 = 0.7974 | 1040.07 | 40.1
308.15 K, x1 = 0.903 | 1052.16 | 44.7
308.15 K, x1 = 1 | 1062.7 | 55.2
313.15 K, x1 = 0.1001 | 853.51 | 24.4
313.15 K, x1 = 0.2008 | 901.33 | 26
313.15 K, x1 = 0.3008 | 937.71 | 27.7
313.15 K, x1 = 0.4009 | 966.13 | 30
313.15 K, x1 = 0.4994 | 989 | 31.5
313.15 K, x1 = 0.5998 | 1007.98 | 34.1
313.15 K, x1 = 0.6976 | 1024.14 | 36.8
313.15 K, x1 = 0.7974 | 1036.96 | 39.8
313.15 K, x1 = 0.903 | 1049.09 | 44.4
313.15 K, x1 = 1 | 1059.66 | 54.9
318.15 K, x1 = 0.1001 | 849.73 | 24
318.15 K, x1 = 0.2008 | 897.78 | 25.6
318.15 K, x1 = 0.3008 | 934.3 | 27.3
318.15 K, x1 = 0.4009 | 962.85 | 29.6
318.15 K, x1 = 0.4994 | 985.79 | 31.2
318.15 K, x1 = 0.5998 | 1004.82 | 33.8
318.15 K, x1 = 0.6976 | 1021.02 | 36.6
318.15 K, x1 = 0.7974 | 1033.88 | 39.5
318.15 K, x1 = 0.903 | 1046.03 | 44.1
318.15 K, x1 = 1 | 1056.64 | 54.5
